Laboratory results reported in US11045455B2, “Azetidine derivative, preparation method therefor, and use thereof” (SICHUAN KELUN-BIOTECH BIOPHARMACEUTICAL CO., LTD., priority 2016, dated 2021).

Legend:
[1] = Pharmacokinetic study in Rhesus monkeys, intravenous (IV) administration; type: in vivo; details: male, rhesus monkey, plasma, IV administration at 0.5 mg/kg
Method: (§1) To study the pharmacokinetic characteristics of test compounds, the test compounds were administrated by an intravenous (IV) route to male Rhesus monkeys. The dosage for IV administration was 0.5 mg/kg. Blood was collected at various time points after the IV administration. Plasma samples were analyzed by LC-MS/MS after protein precipitation process with acetonitrile. Pharmacokinetic parameters were calculated with a non-compartmental model by using WinNonlin 6.3 software.

[2] = Pharmacokinetic study in rats, gavage (PO) administration; type: in vivo; details: male, SD, rat, plasma; for AUC(0-t): po, gavage administration at 5 mg/kg, 0-24 h
Method: (§2) Experimental Example 3: Pharmacokinetic Studies
(§3) To study the pharmacokinetic characteristics of test compounds, the test compounds were administrated by intravenous (IV) and gavage (PO) routes to male SD rats. The dosage for IV administration was 1 mg/kg, and that for PO administration was 0.5-5 mg/kg. The vehicle is 10% DMSO: 10% solutol: 80% physiological saline, or 5% DMSO: 5% solutol: 90% physiological saline, or 10% DMSO: 60% PEG: 30% physiological saline. Blood was collected at various time points after administration. Plasma samples were analyzed by LC-MS/MS after protein precipitation process with acetonitrile.

[3] = tested on: Collagen-Induced Arthritis (CIA) Model in Rats; assay: In vivo efficacy in collagen-induced arthritis (CIA) model in rats; parameters: species or system Lewis rats; Mean arthritis score: scale not given here
Method: Experimental Example 4: In Vivo Efficacy in Collagen-Induced Arthritis (CIA) Model in Rats
A mixed emulsion of bovine type II collagen and incomplete Freund's adjuvant 1:1 was injected at the back and the tail tip (3 sites) in Lewis rats. After 14 days, the paw thickness and paw volume of the rats were measured, and the arthritis development was scored. The day before the administration was set as DO, the animals were grouped based on paw volume, and the test compounds (vehicle: 5% DMSO+5% solutol) were gavage administered once a day for two weeks. The paw thickness and paw volume of the rats were measured, and the arthritis development was scored.

[4] = Pharmacokinetic study in rats, intravenous (IV) administration; type: in vivo; details: male, SD, rat, plasma, IV administration at 1 mg/kg; for AUC(0-t): 0-24 h; for half-life: read-out: T½ (converted)
Method: as §2, §3

[5] = Pharmacokinetic study in Rhesus monkeys, gavage (PO) administration; type: in vivo; details: male, rhesus monkey, plasma, PO administration at 1 mg/kg; for AUC(0-t): 0-24 h; for half-life: read-out: T½ (converted)
Method: as §1, with “a gavage (PO)” for “an intravenous (IV)”, “PO” for “IV”, “1” for “0.5”

TYK2 = TYK2 (Homo sapiens (Human), UniProt P29597); assay: TYK2 enzymatic inhibition assay (LanthaScreen TR-FRET); type: biochemical
Method: (§4) Experimental Example 1: JAK1, JAK2, JAK3 and TYK2 Enzymatic Inhibition Assay
As for the TYK2 enzyme, Tb-anti-pSTAT1 was added, and incubation at room temperature was performed.

hERG potassium channel = hERG potassium channel (Homo sapiens (Human), UniProt Q12809); assay: Predictor hERG Fluorescence Polarization Assay; type: binding; details: tested at 3, 10 and 30 μM
Method: Experimental Example 2: Safety Test
The effect of test compounds on hERG potassium channel were determined using Predictor™ hERG Fluorescence Polarization Assay at concentrations of 3, 10, and 30 μM.

JAK3 = JAK3 (Homo sapiens (Human), UniProt P52333); assay: JAK3 enzymatic inhibition assay (ADP-Glo luminescence); type: biochemical
Description: as §4

[6] = D0 (day before administration), 10 mg/kg group
[7] = D11, 10 mg/kg gavage once a day
[8] = D15, 10 mg/kg gavage once a day

hERG potassium channel, sequence (Q12809 whole entry): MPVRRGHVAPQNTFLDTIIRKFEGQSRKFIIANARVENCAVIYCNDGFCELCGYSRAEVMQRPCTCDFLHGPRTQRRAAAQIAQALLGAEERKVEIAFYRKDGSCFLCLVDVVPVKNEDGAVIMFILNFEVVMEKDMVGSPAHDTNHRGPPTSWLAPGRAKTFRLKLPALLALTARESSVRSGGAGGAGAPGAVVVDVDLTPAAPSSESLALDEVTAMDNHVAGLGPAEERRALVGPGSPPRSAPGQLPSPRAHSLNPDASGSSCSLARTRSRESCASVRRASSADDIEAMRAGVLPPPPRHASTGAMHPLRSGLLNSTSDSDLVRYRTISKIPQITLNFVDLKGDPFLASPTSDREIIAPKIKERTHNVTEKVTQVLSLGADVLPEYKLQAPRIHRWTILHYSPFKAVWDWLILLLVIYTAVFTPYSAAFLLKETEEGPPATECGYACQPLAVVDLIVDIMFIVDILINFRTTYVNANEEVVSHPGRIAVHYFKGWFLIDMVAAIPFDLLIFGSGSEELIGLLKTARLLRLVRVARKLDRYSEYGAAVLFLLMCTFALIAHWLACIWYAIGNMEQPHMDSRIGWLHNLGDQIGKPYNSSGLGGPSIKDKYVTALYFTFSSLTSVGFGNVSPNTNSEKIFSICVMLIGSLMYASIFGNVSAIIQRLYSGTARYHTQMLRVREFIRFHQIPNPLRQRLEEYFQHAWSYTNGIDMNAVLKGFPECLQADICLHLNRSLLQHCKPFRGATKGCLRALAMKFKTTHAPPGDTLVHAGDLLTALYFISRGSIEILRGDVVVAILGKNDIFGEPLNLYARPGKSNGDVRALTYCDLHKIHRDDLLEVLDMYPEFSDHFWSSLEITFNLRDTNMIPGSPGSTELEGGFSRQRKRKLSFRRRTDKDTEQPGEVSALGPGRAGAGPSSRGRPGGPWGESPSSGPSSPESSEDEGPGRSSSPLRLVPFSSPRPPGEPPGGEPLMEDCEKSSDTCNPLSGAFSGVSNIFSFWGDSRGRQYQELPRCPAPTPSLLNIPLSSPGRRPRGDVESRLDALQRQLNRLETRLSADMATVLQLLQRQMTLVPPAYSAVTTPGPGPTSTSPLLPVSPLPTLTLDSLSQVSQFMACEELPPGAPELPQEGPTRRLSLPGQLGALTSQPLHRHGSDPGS
TYK2, sequence (P29597 whole entry): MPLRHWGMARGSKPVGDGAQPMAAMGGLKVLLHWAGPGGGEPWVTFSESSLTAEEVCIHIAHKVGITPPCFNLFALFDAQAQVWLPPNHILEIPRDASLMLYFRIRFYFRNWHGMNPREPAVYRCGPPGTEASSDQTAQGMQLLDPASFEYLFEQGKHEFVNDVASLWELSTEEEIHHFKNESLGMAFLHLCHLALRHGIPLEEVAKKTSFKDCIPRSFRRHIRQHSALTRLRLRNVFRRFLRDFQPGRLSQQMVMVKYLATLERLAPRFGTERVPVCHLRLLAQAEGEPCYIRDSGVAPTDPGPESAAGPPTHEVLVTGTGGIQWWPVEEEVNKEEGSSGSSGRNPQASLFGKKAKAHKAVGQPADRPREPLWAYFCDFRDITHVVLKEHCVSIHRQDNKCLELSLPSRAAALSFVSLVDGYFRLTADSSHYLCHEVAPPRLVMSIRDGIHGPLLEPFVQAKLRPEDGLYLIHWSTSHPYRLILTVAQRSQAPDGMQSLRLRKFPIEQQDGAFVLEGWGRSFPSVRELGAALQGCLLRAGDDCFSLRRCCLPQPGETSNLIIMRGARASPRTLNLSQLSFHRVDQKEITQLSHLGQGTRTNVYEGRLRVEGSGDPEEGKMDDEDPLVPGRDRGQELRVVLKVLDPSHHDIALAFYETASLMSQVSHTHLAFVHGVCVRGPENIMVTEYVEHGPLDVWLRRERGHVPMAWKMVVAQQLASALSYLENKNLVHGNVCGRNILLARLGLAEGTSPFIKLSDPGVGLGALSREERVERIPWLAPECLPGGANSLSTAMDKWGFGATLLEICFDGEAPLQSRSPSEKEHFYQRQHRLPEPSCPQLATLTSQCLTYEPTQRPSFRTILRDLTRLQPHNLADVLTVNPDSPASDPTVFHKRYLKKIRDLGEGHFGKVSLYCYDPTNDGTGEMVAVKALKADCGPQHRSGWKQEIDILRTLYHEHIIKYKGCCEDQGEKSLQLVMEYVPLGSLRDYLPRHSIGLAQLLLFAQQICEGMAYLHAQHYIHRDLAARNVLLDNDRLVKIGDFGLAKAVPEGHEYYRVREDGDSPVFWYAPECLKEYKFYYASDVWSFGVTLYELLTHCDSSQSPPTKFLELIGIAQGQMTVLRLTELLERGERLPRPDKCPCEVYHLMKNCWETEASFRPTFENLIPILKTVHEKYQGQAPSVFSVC
JAK3, sequence (P52333 whole entry): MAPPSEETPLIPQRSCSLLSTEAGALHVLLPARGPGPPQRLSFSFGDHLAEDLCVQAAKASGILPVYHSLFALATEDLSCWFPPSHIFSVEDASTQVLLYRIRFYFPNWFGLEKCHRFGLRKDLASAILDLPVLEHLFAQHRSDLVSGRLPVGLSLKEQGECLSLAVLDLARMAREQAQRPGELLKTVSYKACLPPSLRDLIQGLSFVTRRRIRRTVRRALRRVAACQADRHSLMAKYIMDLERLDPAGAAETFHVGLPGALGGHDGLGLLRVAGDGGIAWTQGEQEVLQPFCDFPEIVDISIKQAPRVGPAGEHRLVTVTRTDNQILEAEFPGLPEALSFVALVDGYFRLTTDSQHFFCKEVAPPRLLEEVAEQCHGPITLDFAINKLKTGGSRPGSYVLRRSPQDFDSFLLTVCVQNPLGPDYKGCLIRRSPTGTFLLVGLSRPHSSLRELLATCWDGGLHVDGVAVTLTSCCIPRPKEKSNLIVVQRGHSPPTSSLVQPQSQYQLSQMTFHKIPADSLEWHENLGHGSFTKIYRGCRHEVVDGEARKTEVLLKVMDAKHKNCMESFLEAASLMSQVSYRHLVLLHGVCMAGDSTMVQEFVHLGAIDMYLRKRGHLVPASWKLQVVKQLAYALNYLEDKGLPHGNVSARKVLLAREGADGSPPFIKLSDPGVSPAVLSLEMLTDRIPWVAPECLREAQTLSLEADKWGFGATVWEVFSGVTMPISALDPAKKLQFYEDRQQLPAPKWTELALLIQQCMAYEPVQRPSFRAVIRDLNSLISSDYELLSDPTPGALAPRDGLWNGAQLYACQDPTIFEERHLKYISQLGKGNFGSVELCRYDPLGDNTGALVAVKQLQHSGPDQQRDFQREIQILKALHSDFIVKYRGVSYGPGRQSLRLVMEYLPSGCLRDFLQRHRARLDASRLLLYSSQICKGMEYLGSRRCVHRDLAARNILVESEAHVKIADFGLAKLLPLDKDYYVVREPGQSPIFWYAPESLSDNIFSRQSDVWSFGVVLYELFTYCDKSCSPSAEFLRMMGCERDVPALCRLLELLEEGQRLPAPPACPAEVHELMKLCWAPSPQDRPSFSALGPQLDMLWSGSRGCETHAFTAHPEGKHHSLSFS

SMILES | half-life [1] [h] | AUC(0-t) [2] [ng·h/mL] | Mean arthritis score [3, 6] | Mean paw thickness (mm) [3, 6] [mm] | Mean paw volume [3, 6] [mL] | Mean arthritis score ([3]; D4, 10 mg/kg gavage once a day) | Mean paw thickness (mm) ([3]; D4, 10 mg/kg gavage once a day) | Mean paw volume ([3]; D4, 10 mg/kg gavage once a day) [mL] | Mean arthritis score ([3]; D7, 10 mg/kg gavage once a day) | Mean paw thickness (mm) ([3]; D7, 10 mg/kg gavage once a day) | Mean paw volume ([3]; D7, 10 mg/kg gavage once a day) [mL] | Mean arthritis score [3, 7] | Mean paw thickness (mm) [3, 7] [mm] | Mean paw volume [3, 7] [mL] | Mean arthritis score [3, 8] | Mean paw thickness (mm) [3, 8] [mm] | Mean paw volume [3, 8] [mL] | AUC(0-t) [4] [ng·h/mL] | half-life [4] [h] | bioavailability [5] [%] | further results
CCS(=O)(=O)N1CC(CC#N)(n2cc(-c3ncnc4[nH]ccc34)cn2)C1 [Baricitinib, reference compound] | 1.38 | 3050 | 3.00 | 7.17 | 1.71 | 2.25 | 6.67 | 1.55 | 1.38 | 6.47 | 1.47 | 1.75 | 6.36 | 1.48 | 1.88 | 6.21 | 1.59 | 505 | 0.946 | 26.3 | bioavailability ([2]; PO administration at 0.5-5 mg/kg, read-out: bioavailability (F %)): 55%; half-life ([2]; PO administration at 0.5-5 mg/kg, read-out: half-life (T1/2) (converted)): 1.58 h; AUC(0-t) [5]: 994 ng·h/mL; half-life [5]: 1.96 h
CCS(=O)(=O)N1CC(CC#N)(n2cc(-c3ccnc4[nH]ccc34)cn2)C1 [Compound 8, 2-(3-(4-(1H-pyrrolo[2,3-b]pyridin-4-yl)-1H-pyrazol-1-yl)-1-(ethylsulfonyl)azetidin-3-yl)acetonitrile] | 5.29 | 14100 | 2.63 | 7.18 | 1.71 | 1.38 | 6.04 | 1.47 | 1.00 | 5.67 | 1.41 | 1.00 | 5.56 | 1.42 | 1.13 | 5.52 | 1.48 | 2650 | 3.93 | 78.6 | IC50 (TYK2): 27.3 nM; IC50 (hERG potassium channel): > 30 µM; IC50 (JAK3): 47.9 nM; AUC(0-t) [5]: 2600 ng·h/mL; half-life [5]: 2.68 h
